Test results taken from the NIST ThermoML archive (doi:10.1021/je500380x).

Assay: mn = molality of the nth substance listed, in mol/kg
Conditions: 100 kPa, Liquid; for viscosity: Falling or rolling sphere viscometry; for mass density: Vibrating tube method; for electrical conductivity: Alternating current cell with electrodes

CCC(=O)OCCN1CCNCC1 [2-(piperazin-1-yl)ethyl propionate] + CCO
Conditions | electrical conductivity [S/m] | mass density [kg/m3] | viscosity [mPa·s]
308.15 K, m1 = 0.05 | – | 779.32 | –
308.15 K, m1 = 0.1 | – | 782.05 | –
308.15 K, m1 = 0.1985 | – | 787.4 | –
308.15 K, m1 = 0.3005 | – | 793.06 | –
308.15 K, m1 = 0.4001 | – | 798.51 | –
308.15 K, m1 = 0.5007 | – | 804.18 | –
308.15 K, m1 = 0.5998 | – | 809.68 | –
308.15 K, m1 = 0.7002 | – | 815.4 | –
308.15 K, m1 = 0.8 | – | 821.15 | –
308.15 K, m1 = 0.8957 | – | 826.9 | –
308.15 K, m1 = 1 | – | 832.84 | 1.841
308.15 K, m1 = 1.198 | – | 844.51 | 2.166
308.15 K, m1 = 1.401 | – | 857.11 | 2.605
308.15 K, m1 = 1.602 | – | 869.1 | 3.182
308.15 K, m1 = 1.8 | – | 881.5 | 3.932
308.15 K, m1 = 2.001 | – | 894.88 | 5.113
308.15 K, m1 = 2.198 | – | 906.86 | 6.285
308.15 K, m1 = 2.397 | – | 920.09 | 7.874
308.15 K, m1 = 2.597 | – | 933.36 | 11.18
308.15 K, m1 = 2.796 | – | 946.62 | 14.4
308.15 K, m1 = 3.006 | – | 960.85 | 20.29
313.15 K, m1 = 0.05 | 0.0197 | 774.92 | 0.856
313.15 K, m1 = 0.1 | 0.0323 | 777.65 | 0.893
313.15 K, m1 = 0.1985 | 0.0513 | 783 | 0.939
313.15 K, m1 = 0.3005 | 0.0674 | 788.67 | 1.003
313.15 K, m1 = 0.4001 | 0.0806 | 794.13 | 1.066
313.15 K, m1 = 0.5007 | 0.0937 | 799.81 | 1.145
313.15 K, m1 = 0.5998 | 0.1048 | 805.32 | 1.225
313.15 K, m1 = 0.7002 | 0.1144 | 811.06 | 1.317
313.15 K, m1 = 0.8 | 0.125 | 816.82 | 1.435
313.15 K, m1 = 0.8957 | 0.1335 | 822.6 | 1.529
313.15 K, m1 = 1 | 0.1433 | 828.55 | 1.655
313.15 K, m1 = 1.198 | 0.158 | 840.27 | 1.94
313.15 K, m1 = 1.401 | 0.1717 | 852.89 | 2.319
313.15 K, m1 = 1.602 | 0.1817 | 864.93 | 2.817
313.15 K, m1 = 1.8 | 0.189 | 877.36 | 3.459
313.15 K, m1 = 2.001 | 0.1932 | 890.78 | 4.464
313.15 K, m1 = 2.198 | 0.1946 | 902.73 | 5.328
313.15 K, m1 = 2.397 | 0.193 | 916.08 | 6.774
313.15 K, m1 = 2.597 | 0.1842 | 929.4 | 9.473
313.15 K, m1 = 2.796 | 0.177 | 942.71 | 12.12
313.15 K, m1 = 3.006 | 0.166 | 956.85 | 16.88
318.15 K, m1 = 0.05 | 0.0198 | 770.48 | 0.787
318.15 K, m1 = 0.1 | 0.0328 | 773.2 | 0.82
318.15 K, m1 = 0.1985 | 0.0525 | 778.55 | 0.86
318.15 K, m1 = 0.3005 | 0.0694 | 784.23 | 0.916
318.15 K, m1 = 0.4001 | 0.0833 | 789.7 | 0.972
318.15 K, m1 = 0.5007 | 0.0972 | 795.39 | 1.043
318.15 K, m1 = 0.5998 | 0.109 | 800.91 | 1.113
318.15 K, m1 = 0.7002 | 0.119 | 806.67 | 1.194
318.15 K, m1 = 0.8 | 0.1309 | 812.45 | 1.299
318.15 K, m1 = 0.8957 | 0.14 | 818.24 | 1.381
318.15 K, m1 = 1 | 0.1514 | 824.21 | 1.492
318.15 K, m1 = 1.198 | 0.168 | 835.97 | 1.741
318.15 K, m1 = 1.401 | 0.1837 | 848.63 | 2.071
318.15 K, m1 = 1.602 | 0.195 | 860.7 | 2.503
318.15 K, m1 = 1.8 | 0.204 | 873.18 | 3.057
318.15 K, m1 = 2.001 | 0.211 | 886.65 | 3.912
318.15 K, m1 = 2.198 | 0.214 | 898.68 | 4.647
318.15 K, m1 = 2.397 | 0.212 | 912.04 | 5.859
318.15 K, m1 = 2.597 | 0.207 | 925.4 | 8.129
318.15 K, m1 = 2.796 | 0.199 | 938.75 | 10.27
318.15 K, m1 = 3.006 | 0.188 | 953.35 | 14.2
323.15 K, m1 = 0.05 | 0.0198 | 765.98 | 0.725
323.15 K, m1 = 0.1 | 0.0331 | 768.7 | 0.755
323.15 K, m1 = 0.1985 | 0.0536 | 774.05 | 0.79
323.15 K, m1 = 0.3005 | 0.0711 | 779.73 | 0.84
323.15 K, m1 = 0.4001 | 0.0856 | 785.21 | 0.889
323.15 K, m1 = 0.5007 | 0.1004 | 790.92 | 0.951
323.15 K, m1 = 0.5998 | 0.1131 | 796.46 | 1.014
323.15 K, m1 = 0.7002 | 0.1239 | 802.23 | 1.086
323.15 K, m1 = 0.8 | 0.137 | 808.02 | 1.178
323.15 K, m1 = 0.8957 | 0.146 | 813.82 | 1.251
323.15 K, m1 = 1 | 0.159 | 819.82 | 1.348
323.15 K, m1 = 1.198 | 0.178 | 831.61 | 1.567
323.15 K, m1 = 1.401 | 0.196 | 844.32 | 1.855
323.15 K, m1 = 1.602 | 0.209 | 856.43 | 2.446
323.15 K, m1 = 1.8 | 0.222 | 868.95 | 2.713
323.15 K, m1 = 2.001 | 0.231 | 882.65 | 3.443
323.15 K, m1 = 2.198 | 0.237 | 894.55 | 4.068
323.15 K, m1 = 2.397 | 0.236 | 907.95 | 5.091
323.15 K, m1 = 2.597 | 0.232 | 921.36 | 6.903
323.15 K, m1 = 2.796 | 0.224 | 934.75 | 8.728
323.15 K, m1 = 3.006 | 0.213 | 949.41 | 12.02
